Values after ≈ are worked out from the molar mass of the structure shown.
How the values were obtained:
[1] = test system: E. coli, NIHJ; test: antimicrobial activity, MIC, standard process of Japan Society of Chemotherapy; format: cell-based; details: for MIC: Escherichia coli, read-out: minimum growth inhibitory concentration (MIC)
Experimental: (§1) The antimicrobial activities of the compounds of the present invention were determined according to a standard process designated by the Japan Society of Chemotherapy and the minimum growth inhibitory concentrations (MIC) (μg/ml) the compounds were determined.

[2] = test system: Pr. mirabilis, IF03849; test: as above; format: cell-based; details: for MIC: Proteus mirabilis, IF03849, Pr. mirabilis, read-out: minimum growth inhibitory concentration (MIC)
Experimental: as §1

[3] = test system: Pr. vulgaris, 3167; test: as above; format: cell-based; details: for MIC: Proteus vulgaris, 3167, Pr. vulgaris, read-out: minimum growth inhibitory concentration (MIC)
Experimental: as §1

[4] = test system: Ps. aeruginosa, 2063; test: as above; format: cell-based; details: for MIC: Pseudomonas aeruginosa, 2063, Ps. aeruginosa, read-out: minimum growth inhibitory concentration (MIC)
Experimental: as §1

[5] = test system: Ps. aeruginosa, 2128; test: as above; format: cell-based; details: for MIC: Pseudomonas aeruginosa, 2128, Ps. aeruginosa, read-out: minimum growth inhibitory concentration (MIC)
Experimental: as §1

[6] = test system: Ps. cepacia, IID1340; test: as above; format: cell-based; details: for MIC: Burkholderia cepacia, IID1340, Ps. cepacia, read-out: minimum growth inhibitory concentration (MIC)
Experimental: as §1

[7] = test system: Ps. maltophilia, IID1275; test: as above; format: cell-based; details: for MIC: Stenotrophomonas maltophilia, IID1275, Ps. maltophilia, read-out: minimum growth inhibitory concentration (MIC)
Experimental: as §1

[8] = test system: S. aureus, 209P; test: as above; format: cell-based; details: for MIC: Staphylococcus aureus, read-out: minimum growth inhibitory concentration (MIC)
Experimental: as §1

[9] = test system: S. epidermidis, 56500; test: as above; format: cell-based; details: for MIC: Staphylococcus epidermidis, 56500, S. epidermidis, read-out: minimum growth inhibitory concentration (MIC)
Experimental: as §1

[10] = test system: Ser. marcescens, 13001; test: as above; format: cell-based; details: for MIC: Serratia marcescens, 13001, Ser. marcescens, read-out: minimum growth inhibitory concentration (MIC)
Experimental: as §1

[11] = test system: Sh. flexneri, 2a5503; test: as above; format: cell-based; details: for MIC: Shigella flexneri, read-out: minimum growth inhibitory concentration (MIC)
Experimental: as §1

[12] = test system: Str. faecalis, ATCC 19433; test: as above; format: cell-based; details: for MIC: Enterococcus faecalis, ATCC19433, Str. faecalis, read-out: minimum growth inhibitory concentration (MIC)
Experimental: as §1

[13] = test system: Str. pyogenes, G-36; test: as above; format: cell-based; details: for MIC: Streptococcus pyogenes, G36, Str. pyogenes, read-out: minimum growth inhibitory concentration (MIC)
Experimental: as §1

[14] = physchem; format: physicochemical; details: water
Experimental: (§2) The water-solubility and acute toxicity of the compounds of the present invention and the comparative compounds, were measured. The results obtained are shown hereunder. The water-solubility was measured by the following method.
(i) Preparation of standard solution
About 400 μg of the sample to be measured was accurately weighed (the weight was defined as W μg), and 0.1N NaOH solution was added thereto to bring the whole volume to 50 ml. The UV absorbance of a given amount of the solution was measured and the measured absorbance was defined as A1.
(ii) Preparation of sample to be measured
Distilled water was added to the sample to be measured (fine powder) in such amount that the sample was not completely dissolved but suspended, and then the suspension was vigorously agitated at room temperature (between 23° and 26° C.) for 30 minutes. Insoluble matter of the sample was removed therefrom by filtration, after which 3 ml sample of the filtrate (satulated aqueous solution of the sample) was taken. 3 ml of 0.2N NaOH solution was added to the filtrate sample to bring the total volume to 6 ml (i.e. the filtrate was diluted to 50% concentration.) To 1 ml of the resulting solution, 0.1N NaOH solution was further added to bring the total volume to 25 ml […]. In this connection, degree of dilution was occasionally changed, depending on degree of UV absorbance. The UV absorbance of the given amount of the solution was measured and the resulting absorbance was defined to as A2. Where the number of dilution is N, water-solubility (s) is obtained from the following equation: [formula]

[15] = test system: mouse; test: acute toxicity to mouse; format: in vivo; details: 200 mg/kg; i.v.
Experimental: as §2
*200 mg/kg; i.v, (deaths/total number) As is obvious from the above

[16] = absorption after oral administration to rats; format: in vivo; details: rat, 20 mg/kg; for half-life: serum half life, 0.693/Kel; for Cmax / AUC(0-t) at 6 h: serum; for Cmax: 5 rats per group; for AUC(0-t) at 6 h: zero to 6 h, trapezoidal method, read-out: AUC0-6H
Experimental: The compounds of the present invention and the comparative compound were orally given to rats (one group: 5 rats) at a dose of 20 mg/kg to measure the oral absorption of the compounds. The concentration of the compound in the blood of the rat was measured at 15 minutes, 30 minutes, and 1, 2, 3, 4, and 6 hours after administration.
Serum half lives (T1/2) were calculated as 0.693/Kel, where Kel is the elimination rate constant determined by linear regression analysis of the natural logarithm of serum concentration-time data. The area under the serum concentration-versus time curve from zero to 6 h (AUC0-6H) was calculated by the trapezoidal method, The results obtained are as follows: […]

[17] = in words, prior art discussion; cited from earlier work
[18] = test system: Gram-negative microorganisms; details: in words, prior art discussion; cited from earlier work

| SMILES | MIC [1] [µg/mL] | MIC [2] [µg/mL] | MIC [3] [µg/mL] | MIC [4] [µg/mL] | MIC [5] [µg/mL] | MIC [6] [µg/mL] | MIC [7] [µg/mL] | MIC [8] [µg/mL] | MIC [9] [µg/mL] | MIC [10] [µg/mL] | MIC [11] [µg/mL] | MIC [12] [µg/mL] | MIC [13] [µg/mL] | solubility at 0.5 h [14] [µg/mL] | Acute toxicity to mouse [15] | half-life [16] [h] | Cmax [16] [ng/mL] | AUC(0-t) at 6 h [16] [ng·h/mL] | also measured |
| --- | --- | --- | --- | --- | --- | --- | --- | --- | --- | --- | --- | --- | --- | --- | --- | --- | --- | --- | --- |
| CC(C)(N)C1CCN(c2c(F)cc3c(=O)c(C(=O)O)cn(C4CC4)c3c2F)C1 (centres unmarked) [Example 11, 7-[3-(1-Amino-1-methyl)ethyl-1-pyrrolidinyl]-1-cyclopropyl-6,8-difluoro-1,4-dihydro-4-oxoquinoline-3-carboxylic acid] | ≤ 0.05 | 0.1 (≈ 0.255 µM) | ≤ 0.05 | 0.78 (≈ 1.99 µM) | 0.2 (≈ 0.511 µM) | 0.78 (≈ 1.99 µM) | 0.1 (≈ 0.255 µM) | ≤ 0.05 | ≤ 0.05 | 0.1 (≈ 0.255 µM) | ≤ 0.05 | ≤ 0.05 | ≤ 0.05 | 200 (≈ 511 µM) | 0/5 | 2.27 | 2100 | 6430 | – |
| CC(C)(N)C1CCN(c2nc3c(cc2F)c(=O)c(C(=O)O)cn3C2CC2)C1 (centres unmarked) [Example 13, 7-[3-(1-Amino-1-methyl)ethyl-1-pyrrolidinyl]-1-cyclo-propyl-6-difluoro-1,4-dihydro-4-oxo-1,8-naphthyridine-3-carboxylic acid] | ≤ 0.05 | 0.39 (≈ 1.04 µM) | 0.1 (≈ 0.267 µM) | 0.39 (≈ 1.04 µM) | 0.2 (≈ 0.534 µM) | 0.78 (≈ 2.08 µM) | 0.2 (≈ 0.534 µM) | ≤ 0.05 | ≤ 0.05 | 0.2 (≈ 0.534 µM) | ≤ 0.05 | 0.2 (≈ 0.534 µM) | 0.1 (≈ 0.267 µM) | 2000 (≈ 5340 µM) | 1/5 | 2.41 | 2140 | 7950 | – |
| CCNCC1CCN(c2c(F)cc3c(=O)c(C(=O)O)cn(C4CC4)c3c2F)C1 (centres unmarked) [Compound A, 1-cyclopropyl-6,8-difluoro-(3-ethylaminomethyl-1-pyrolidinyl)-1,4-dihydro-4-oxoquinoline-3-carboxylic acid, reference compound] | ≤ 0.05 | ≤ 0.05 | 0.1 (≈ 0.255 µM) | 0.39 (≈ 0.996 µM) | 0.2 (≈ 0.511 µM) | 0.78 (≈ 1.99 µM) | 0.39 (≈ 0.996 µM) | ≤ 0.05 | ≤ 0.05 | 0.1 (≈ 0.255 µM) | ≤ 0.05 | 0.1 (≈ 0.255 µM) | 0.1 (≈ 0.255 µM) | 40 (≈ 102 µM) | 3/5 | – | – | – | water-solubility (prior art compounds) [17]: extremely low water-solubility; antimicrobial activity against Gram-negative microorganisms (prior art compounds) [18]: strong antimicrobial activity |
| CNC(C)C1CCN(c2c(F)cc3c(=O)c(C(=O)O)cn(C4CC4)c3c2F)C1 (single isomer, unassigned) [Example 7] | – | – | – | – | – | – | – | – | – | – | – | – | – | 710 (≈ 1810 µM) | 1/5 | 2.01 | 2210 | 6310 | minimum growth inhibitory concentration (MIC) [1]: ≤ 0.05 µg/mL; minimum growth inhibitory concentration (MIC) ([2]; Pr. mirabilis): ≤ 0.05 µg/mL; minimum growth inhibitory concentration (MIC) ([3]; Pr. vulgaris): ≤ 0.05 µg/mL; minimum growth inhibitory concentration (MIC) ([4]; Ps. aeruginosa): 0.20 µg/mL; minimum growth inhibitory concentration (MIC) ([5]; Ps. aeruginosa): 0.10 µg/mL; minimum growth inhibitory concentration (MIC) ([6]; Ps. cepacia): 0.78 µg/mL; minimum growth inhibitory concentration (MIC) ([7]; Ps. maltophilia): 0.20 µg/mL; minimum growth inhibitory concentration (MIC) [8]: ≤ 0.05 µg/mL; minimum growth inhibitory concentration (MIC) ([9]; S. epidermidis): ≤ 0.05 µg/mL; minimum growth inhibitory concentration (MIC) ([10]; Ser. marcescens): 0.10 µg/mL; minimum growth inhibitory concentration (MIC) [11]: ≤ 0.05 µg/mL; minimum growth inhibitory concentration (MIC) ([12]; Str. faecalis): ≤ 0.05 µg/mL; minimum growth inhibitory concentration (MIC) ([13]; Str. pyogenes): ≤ 0.05 µg/mL |

— patent publication US5416222A, “3-pyrrolidine methanamines wherein the alpha-carbon is substituted by 1 or 2 lower alkyl groups which are intermediates for pyridone-carboxylic acid derivatives” (Daiichi Seiyaku Co., Ltd., priority 1985, dated 1995)
